The source of these data is paper PMC7463460, “Structure and Antiparasitic Activity Relationship of Alkylphosphocholine Analogues against Leishmania donovani” (Microorganisms, 2020).

pIC50: −log10 of the molar value. “And” between values parts separate entries of the source, which are not always exact repeats. Equal entries are not always repeated. Where two headings read alike, the source gives them in different places.

In data set [1] the test system is L. donovani LV82 promastigotes. The data set can be described thus: Luciferase-expressing promastigote assay, strain LV82. It counts as cell-based, Leishmania donovani. The settings on record: for Promast: Amast Ratio: LV82; for IC50: Leishmania donovani, 72 h, LV82, 3 days, 25 °C. The procedure: The anti-leishmanial activity of APC against L. donovani luciferase-expressing promastigotes was determined by adding of the appropriate 100 µL parasite line (10^6 cells/mL) to the wells of a 96-well plate and adding 100 µL medium alone (controls) or 100 µL of APC compound (0.01 µg/mL–6.25 µg/mL, n = 3/treatment). The plate was incubated for 72 h at 25 °C. In combination assays, the additional compound/compounds, at a final concentration of 0.195 or 0.39 µg/mL, was added to the initial APC being tested.
(§1) Luciferin solution (1 µg/mL in 20 µL medium without FCS) was added to the appropriate wells of the 96-well plate at the end of the experiment and the amount of light emitted/well was measured using a luminometer (Biotek Synergy HT, relative light units) using a wavelength/bandwidth of 440/40 nm, or IVIS® imaging (Spectrum Living Image system®, total flux, photons/sec).
(§2) The effect of drug treatment on parasite survival was determined by calculating the mean suppression in the light emitted from the drug-treated experimental sample compared to the mean control value and used to calculate the IC50 using Grafit® software (version 5.0, Erithacus Software, East Grinstead, West Sussex, UK). The effect of drug alone on the viability of uninfected macrophages was determined using the same experimental protocol above, but cell viability was determined using an alamar blue colorimetric assay. At the end of the incubation period, cells’ 10 µL resazurin solution (0.02% w/v) was added to control and drug treated cells and the absorbance of samples was read at 575 and 595 nm. The effect of drug treatment on cell survival, which correlates with the magnitude of dye reduction, was expressed as percentage viability (or alamar blue reduction) and determined using the formula provided in the manufacturer’s protocol % alamar blue reduction=(εoxλ)(Aλ1)−(εoxλ1)(Aλ2)/(εredλ1)(A^′λ2)−(εredλ2)(A^′λ1)x100

Data set [2] deals with L. donovani LV82 intracellular amastigotes. The data set can be described thus: Intracellular amastigote assay in bone-marrow-derived macrophages, strain LV82. In kind it is cell-based, Leishmania donovani. The settings on record: for IC50: Leishmania donovani, Macrophage, in Mus musculus, 72 h; for Selectivity Index (SI50): macrophage CC50 / LV82 intracellular amastigote IC50. The procedure:
In the macrophage studies, the method described in previous studies was used as follows. […] It is possible that intracellular macrophage parasites could have been at different developmental stages at 24 h post-infection. […] Therefore, we assumed that the effect of compounds on the amastigote stage rather than the promastigotes stage was determined in in vitro macrophage studies.
The plate was incubated for a further 24 h, the medium removed, and each well washed with PBS to eliminate non-internalized parasites, which were monitored microscopically. […] Wells with macrophage and with no drug or promastigotes added were used in control experiments.
as §1
as §2, with “At the end of the incubation period, cells’ 10 µL resazurin solution (0.02% w/v) was added to control and drug treated cells and the absorbance of samples was read at 575 and 595 nm.” left out

Data set [3] can be described thus: Cytotoxicity against uninfected macrophages (alamar blue). The settings on record: BALB/c, mouse, read-out: Macrophage mean IC50 (CC50) (converted). In kind it is cell-based, BALB/c mice. Here is the method: as §2
(§3) In the formula, ελ1 and ελ2 are constants representing the molar extinction coefficient of alamar blue at 575 and 595 nm, respectively, in the oxidized (εox) and reduced (εred) forms. Aλ1, Aλ2 and A’λ1, A’λ2 represent absorbance of test and negative control wells at 575 and 595 nm, respectively. The values of % alamar blue reduction (or % viability) were corrected for background values of negative controls containing medium without cells. Percent viability values were used to calculate the IC50 using Grafit® software (version 5.0).
For orientation: Resazurin is reduced to fluorescent resorufin, in cell work by metabolically active cells.

The subject of another data set is visceral leishmaniasis. The settings on record: VL, 12 months post-treatment; cited from earlier work.
For data set [4], the system named is bone-marrow-derived macrophages from BALB/c mice. The data set can be described thus: Cytotoxicity against uninfected macrophages (alamar blue). It counts as cell-based. The settings on record: 3 days. Here is the method:
as §2, §3

Where [5] appears, read: LV82, intracellular in BALB/c macrophages, 3 days, 37 °C.
[6] abbreviates: uninfected bone-marrow-derived macrophages.

Consider `CCCCCCCCCCCCOP(=O)(O)O` [PO, mono –n-dodecyl phosphate], for which the “Promast: Amast Ratio” value in data set [1] is given as above 3.12. Further, the “activity against L. donovani compared to controls” value in data set [1] (LV82 promastigotes and amastigotes) is “inactive”. Moreover, the IC50 in data set [1] is > 6.25 µg/mL and > 25.1 µM; in data set [2] (setting [5]) it was > 2 µg/mL and > 8.02 µM. In addition, in data set [2], the “Selectivity Index (SI50)” value is above 50.00. For the same molecule, the half-inhibitory concentration (IC50) at 3 days in data set [3] (setting [6]) is 100 µg/mL and 401 µM.
As to `CC(C)CCC(CCC(C)C)OP(=O)([O-])OCC[N+](C)(C)C` [APC11PC, 2,8-Dimethyl-5-Nonylphosphocholine], in data set [1], the “Promast: Amast Ratio” value was above 33.60; the IC50 was > 6.25 µg/mL and > 18.6 µM. Moreover, the half-inhibitory concentration (IC50) in data set [2] (setting [5]) was 0.19 µg/mL and 550 nM. For the same molecule, in data set [2], the “Selectivity Index (SI50)” value is 335.56. Also, in data set [3] (setting [6]), the 50% inhibitory concentration (IC50) at 3 days was 61.9 µg/mL and 185 µM.
On to `C=CCCCCCCCCCOP(=O)([O-])OCC[N+](C)(C)C` [APC11UPC, 10-Undecylenyl-1-phosphocholine], for which, in data set [1], the “Promast: Amast Ratio” value is 135.34; the 50% inhibitory concentration (IC50) was 1.8 µg/mL and 5.37 µM. The 50% inhibitory concentration (IC50) in data set [2] (setting [5]) is 0.01 µg/mL and 40 nM. The “Selectivity Index (SI50)” value in data set [2] is listed as 4025.00. Also, the half-inhibitory concentration (IC50) at 3 days in data set [3] (setting [6]) is 54 µg/mL and 161 µM.
Take `C[C@@H]1[C@H](O)[C@@H](C)/C=C/C=C/C=C/C=C/C=C/C=C/C=C/[C@H](O[C@@H]2O[C@H](C)[C@@H](O)[C@H](N)[C@@H]2O)C[C@@H]2O[C@](O)(C[C@@H](O)C[C@@H](O)[C@H](O)CC[C@@H](O)C[C@@H](O)CC(=O)O[C@H]1C)C[C@H](O)[C@H]2C(=O)O` [AMB, amphotericin B]: the cure rate in the data set with visceral leishmaniasis is on record as 93.7%.
As for `CCCCCCCCCCCC[N+](C)(C)CCCCCCCCCCCC` [DAB, didodecyldimethyl ammonium bromide], in data set [1], the “Promast: Amast Ratio” value was 0.79; the IC50 was 0.04 µg/mL and 91 nM. The IC50 in data set [2] (setting [5]) is 0.06 µg/mL and 119 nM. The “Selectivity Index (SI50)” value in data set [2] worked out at 1503.45. Further, the IC50 at 3 days in data set [3] was 82.8 µg/mL and 179 µM.
For `CCCCCCCCCCCCOP(=O)([O-])OCCCCCC[N+](C)(C)C` [APC12P6C], in data set [1], the “Promast: Amast Ratio” value came to 33.33; the IC50 was 33.5 µg/mL and 82.2 µM. Moreover, the IC50 in data set [2] (setting [5]) is 1.01 µg/mL and 2.47 µM. For the same molecule, the “Selectivity Index (SI50)” value in data set [2] is on record as 14.01. Moreover, the half-inhibitory concentration (IC50) at 3 days in data set [3] (setting [6]) was 14.1 µg/mL and 34.6 µM.
Take dodecylamine [DA]: the “Promast: Amast Ratio” value in data set [1] is listed as 0.18. Further, in data set [2] (setting [5]), the “Amastigote mean IC50” value is 0.47 ± 0.00 µg/mL and the negative-log IC50 (pIC50) was 5.60. Besides, in data set [2], the “Selectivity Index (SI50)” value is given as 79.88. For the same molecule, the “Macrophage mean IC50 (CC50)” value in data set [4] stood at 37.60 ± 0.01 µg/mL. In addition, in data set [4] (read-out: Macrophage mean IC50 (CC50) (converted)), the IC50 is 203 µM.

The term IC50 denotes the midpoint of a concentration-inhibition curve. Broadly, the pIC50 is the negative decadic logarithm of the IC50, by convention in mol/L.
